# Results from ChEMBL document CHEMBL5291721, “A preclinical secondary pharmacology resource illuminates target-adverse drug reaction associations of marketed drugs” (Nat Commun, 2023).
# Legend:
# [1] = target: T1, Type-2 angiotensin II receptor (Homo sapiens, UniProt P50052); assay type: functional
# T1 sequence (P50052 whole entry): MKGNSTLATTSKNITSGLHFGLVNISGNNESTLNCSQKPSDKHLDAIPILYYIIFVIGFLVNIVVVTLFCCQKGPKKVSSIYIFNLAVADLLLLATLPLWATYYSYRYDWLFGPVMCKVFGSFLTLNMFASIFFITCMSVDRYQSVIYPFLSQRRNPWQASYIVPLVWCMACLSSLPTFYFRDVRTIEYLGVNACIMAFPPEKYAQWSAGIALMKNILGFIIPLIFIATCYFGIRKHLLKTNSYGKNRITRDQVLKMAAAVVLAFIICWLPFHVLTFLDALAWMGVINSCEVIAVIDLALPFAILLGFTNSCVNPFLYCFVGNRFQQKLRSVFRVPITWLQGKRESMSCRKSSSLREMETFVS
# [2] = target: Histamine H1 receptor (Homo sapiens, UniProt P35367); assay type: functional, cell-based
# Chain of Histamine H1 receptor (P35367 whole entry): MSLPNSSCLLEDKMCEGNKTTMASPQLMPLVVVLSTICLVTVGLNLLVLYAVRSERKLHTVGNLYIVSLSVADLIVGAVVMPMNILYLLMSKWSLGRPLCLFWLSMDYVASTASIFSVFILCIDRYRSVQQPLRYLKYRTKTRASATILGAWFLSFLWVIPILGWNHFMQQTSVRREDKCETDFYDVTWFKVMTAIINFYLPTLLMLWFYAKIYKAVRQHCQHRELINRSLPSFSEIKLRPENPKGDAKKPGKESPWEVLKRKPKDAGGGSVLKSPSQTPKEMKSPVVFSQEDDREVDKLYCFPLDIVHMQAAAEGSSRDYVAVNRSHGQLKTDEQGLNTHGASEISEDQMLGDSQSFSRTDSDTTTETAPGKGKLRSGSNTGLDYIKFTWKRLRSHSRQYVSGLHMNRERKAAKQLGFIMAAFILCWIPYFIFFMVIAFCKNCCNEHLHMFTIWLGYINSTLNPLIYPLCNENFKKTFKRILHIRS
# [3] = target: T2, Peroxisome proliferator-activated receptor gamma (Homo sapiens, UniProt P37231); assay type: functional
# T2 sequence (P37231 whole entry): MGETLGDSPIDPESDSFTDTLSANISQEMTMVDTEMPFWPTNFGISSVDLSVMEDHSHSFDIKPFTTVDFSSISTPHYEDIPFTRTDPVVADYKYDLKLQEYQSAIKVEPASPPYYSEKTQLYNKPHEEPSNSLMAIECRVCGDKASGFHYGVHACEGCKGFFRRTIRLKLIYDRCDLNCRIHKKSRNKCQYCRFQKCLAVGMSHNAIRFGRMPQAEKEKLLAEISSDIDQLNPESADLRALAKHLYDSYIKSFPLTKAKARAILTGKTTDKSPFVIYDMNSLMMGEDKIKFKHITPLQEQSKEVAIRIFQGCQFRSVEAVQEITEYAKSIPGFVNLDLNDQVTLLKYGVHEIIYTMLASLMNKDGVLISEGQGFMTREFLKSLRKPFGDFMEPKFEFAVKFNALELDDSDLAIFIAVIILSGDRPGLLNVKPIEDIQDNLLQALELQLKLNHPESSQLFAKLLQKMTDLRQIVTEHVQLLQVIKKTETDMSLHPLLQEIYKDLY
# [4] = target: T3, Muscarinic acetylcholine receptor M4 (Homo sapiens, UniProt P08173)
# T3 sequence (P08173 whole entry): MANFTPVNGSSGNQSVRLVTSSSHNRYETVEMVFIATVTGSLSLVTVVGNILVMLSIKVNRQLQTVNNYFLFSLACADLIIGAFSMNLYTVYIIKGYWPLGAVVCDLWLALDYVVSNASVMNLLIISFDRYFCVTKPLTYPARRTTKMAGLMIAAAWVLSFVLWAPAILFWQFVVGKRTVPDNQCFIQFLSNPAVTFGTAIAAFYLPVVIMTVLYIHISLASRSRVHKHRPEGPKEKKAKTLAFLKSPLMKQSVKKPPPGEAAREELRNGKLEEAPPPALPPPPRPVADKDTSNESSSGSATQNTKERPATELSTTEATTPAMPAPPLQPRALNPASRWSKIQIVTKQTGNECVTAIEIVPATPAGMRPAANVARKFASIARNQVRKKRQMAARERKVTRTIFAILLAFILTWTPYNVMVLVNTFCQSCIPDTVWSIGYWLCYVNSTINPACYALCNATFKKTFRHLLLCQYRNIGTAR
# [5] = target: T4, Muscarinic acetylcholine receptor M5 (Homo sapiens, UniProt P08912)
# T4 sequence (P08912 whole entry): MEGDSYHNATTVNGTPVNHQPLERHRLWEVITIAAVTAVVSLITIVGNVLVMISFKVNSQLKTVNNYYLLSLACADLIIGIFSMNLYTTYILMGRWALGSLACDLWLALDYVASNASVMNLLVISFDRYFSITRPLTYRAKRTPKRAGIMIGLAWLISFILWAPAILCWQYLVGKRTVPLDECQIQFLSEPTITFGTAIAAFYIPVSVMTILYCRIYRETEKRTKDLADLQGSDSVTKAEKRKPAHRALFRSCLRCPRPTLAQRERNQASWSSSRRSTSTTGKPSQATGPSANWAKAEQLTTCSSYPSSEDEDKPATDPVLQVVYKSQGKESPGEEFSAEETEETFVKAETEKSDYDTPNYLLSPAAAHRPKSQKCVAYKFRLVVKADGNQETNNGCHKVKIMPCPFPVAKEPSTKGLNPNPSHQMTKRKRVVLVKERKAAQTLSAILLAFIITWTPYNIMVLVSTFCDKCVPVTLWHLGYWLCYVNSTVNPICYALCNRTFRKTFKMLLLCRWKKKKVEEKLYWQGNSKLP
# [6] = target: 5-hydroxytryptamine receptor 7 (Homo sapiens, UniProt P34969)
# Chain of 5-hydroxytryptamine receptor 7 (P34969 whole entry): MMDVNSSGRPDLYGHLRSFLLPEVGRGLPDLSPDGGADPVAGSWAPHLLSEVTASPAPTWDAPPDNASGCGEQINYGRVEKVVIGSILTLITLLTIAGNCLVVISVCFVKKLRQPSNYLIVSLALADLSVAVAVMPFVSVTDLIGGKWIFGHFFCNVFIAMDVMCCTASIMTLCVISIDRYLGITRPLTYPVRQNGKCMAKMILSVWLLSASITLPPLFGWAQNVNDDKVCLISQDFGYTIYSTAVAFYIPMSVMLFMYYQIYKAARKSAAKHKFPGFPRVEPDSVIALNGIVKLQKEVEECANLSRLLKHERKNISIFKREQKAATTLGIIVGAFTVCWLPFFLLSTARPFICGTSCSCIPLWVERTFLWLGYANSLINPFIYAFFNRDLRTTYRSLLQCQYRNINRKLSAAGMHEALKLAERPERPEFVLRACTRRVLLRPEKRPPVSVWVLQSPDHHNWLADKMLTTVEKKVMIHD
# [7] = target: T5, Corticotropin-releasing factor receptor 2 (Homo sapiens, UniProt Q13324)
# T5 sequence (Q13324 whole entry): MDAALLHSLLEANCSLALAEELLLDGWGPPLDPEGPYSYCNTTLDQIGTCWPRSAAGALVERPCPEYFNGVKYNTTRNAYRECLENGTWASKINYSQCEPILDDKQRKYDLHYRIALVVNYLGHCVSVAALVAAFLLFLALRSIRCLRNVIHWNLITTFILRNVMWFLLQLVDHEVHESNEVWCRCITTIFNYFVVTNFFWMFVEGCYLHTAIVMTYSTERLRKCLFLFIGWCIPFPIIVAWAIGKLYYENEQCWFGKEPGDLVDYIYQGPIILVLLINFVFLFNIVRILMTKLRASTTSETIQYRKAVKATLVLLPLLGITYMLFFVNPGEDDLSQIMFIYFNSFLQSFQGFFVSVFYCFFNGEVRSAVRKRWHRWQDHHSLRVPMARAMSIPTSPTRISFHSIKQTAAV
# [8] = target: Estrogen receptor beta (Homo sapiens, UniProt Q92731)
# Chain of Estrogen receptor beta (Q92731 whole entry): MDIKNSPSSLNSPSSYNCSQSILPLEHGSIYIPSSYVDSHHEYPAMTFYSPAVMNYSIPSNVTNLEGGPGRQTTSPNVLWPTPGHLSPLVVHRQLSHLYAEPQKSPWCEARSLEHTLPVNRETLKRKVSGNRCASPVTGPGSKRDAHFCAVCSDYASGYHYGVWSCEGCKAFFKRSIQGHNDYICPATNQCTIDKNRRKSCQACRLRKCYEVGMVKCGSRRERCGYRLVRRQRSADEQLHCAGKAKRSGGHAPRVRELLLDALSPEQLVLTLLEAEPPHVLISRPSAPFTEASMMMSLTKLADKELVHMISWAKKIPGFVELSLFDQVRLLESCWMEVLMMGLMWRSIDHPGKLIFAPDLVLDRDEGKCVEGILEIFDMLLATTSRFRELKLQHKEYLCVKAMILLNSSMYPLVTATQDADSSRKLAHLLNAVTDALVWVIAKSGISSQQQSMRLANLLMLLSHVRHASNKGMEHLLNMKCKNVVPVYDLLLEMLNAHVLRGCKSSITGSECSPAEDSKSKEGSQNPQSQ
# [9] = target: T6, Gastric inhibitory polypeptide receptor (Homo sapiens, UniProt P48546)
# T6 sequence (P48546 whole entry): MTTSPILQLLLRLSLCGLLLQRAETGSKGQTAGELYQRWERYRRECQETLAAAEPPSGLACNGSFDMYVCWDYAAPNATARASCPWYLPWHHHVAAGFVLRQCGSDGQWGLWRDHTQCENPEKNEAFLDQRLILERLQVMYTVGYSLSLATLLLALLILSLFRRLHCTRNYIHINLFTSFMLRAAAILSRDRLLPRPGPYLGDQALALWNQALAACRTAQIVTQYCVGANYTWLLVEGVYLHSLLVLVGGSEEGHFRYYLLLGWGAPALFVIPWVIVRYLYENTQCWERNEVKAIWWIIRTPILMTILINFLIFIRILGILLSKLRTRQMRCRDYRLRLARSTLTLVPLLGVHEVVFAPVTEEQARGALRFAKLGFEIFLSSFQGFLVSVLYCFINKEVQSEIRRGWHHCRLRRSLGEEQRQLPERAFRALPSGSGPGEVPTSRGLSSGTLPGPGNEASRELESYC
# Note: assay procedure not described here.
smiles,measurement,setting,value
CN(C)Cc1nnc2n1-c1ccc(Cl)cc1C(c1ccccc1)=NC2 [ADINAZOLAM],AC50,[1],> 100 µM
CN(C)C/C=C/C(=O)Nc1cc2c(Nc3ccc(F)c(Cl)c3)ncnc2cc1O[C@H]1CCOC1 [AFATINIB],AC50,[2],> 30 µM
same,AC50,[3],> 30 µM
O=C(/C=C/c1cccc(S(=O)(=O)Nc2ccccc2)c1)NO [BELINOSTAT],AC50,[4],> 10 µM
same,AC50,[5],> 10 µM
same,AC50,[6],> 10 µM
CC(C)(Oc1ccc(CCNC(=O)c2ccc(Cl)cc2)cc1)C(=O)O [BEZAFIBRATE],AC50,[3],> 30 µM
CC(O)(CS(=O)(=O)c1ccc(F)cc1)C(=O)Nc1ccc(C#N)c(C(F)(F)F)c1 (configuration not stated) [BICALUTAMIDE],AC50,[5],> 10 µM
same,AC50,[7],> 30 µM
same,AC50,[8],> 30 µM
same,AC50,[9],> 30 µM
same,AC50,[6],> 10 µM
O=C(O)COCCN1CCN(C(c2ccccc2)c2ccc(Cl)cc2)CC1 (configuration not stated) [CETIRIZINE],AC50,[7],> 30 µM
same,AC50,[8],> 30 µM
same,AC50,[9],> 30 µM
C[C@@H]1C[C@H]2[C@@H]3C[C@H](F)C4=CC(=O)C=C[C@]4(C)[C@@]3(F)[C@@H](O)C[C@]2(C)[C@@]1(OC(=O)c1ccco1)C(=O)SCF [FLUTICASONE FUROATE],AC50,[4],> 10 µM
same,AC50,[5],> 10 µM
same,AC50,[6],> 10 µM
CN(C)CCCN1c2ccccc2CCc2ccccc21 [IMIPRAMINE],AC50,[1],> 100 µM
same,AC50,[4],1.07 µM
same,AC50,[5],0.33 µM
same,AC50,[7],> 30 µM
same,AC50,[8],> 30 µM
same,AC50,[9],> 30 µM
same,AC50,[6],> 10 µM
CN(Cc1cnc2nc(N)nc(N)c2n1)c1ccc(C(=O)N[C@@H](CCC(=O)O)C(=O)O)cc1 [METHOTREXATE],AC50,[7],> 30 µM
same,AC50,[8],> 30 µM
same,AC50,[9],> 30 µM
O=C(O)c1cccnc1Nc1cccc(C(F)(F)F)c1 [NIFLUMIC ACID],AC50,[1],> 100 µM
OC[C@H]1O[C@@H](n2cnc3c2NC=NC[C@H]3O)C[C@@H]1O [PENTOSTATIN],AC50,[2],> 30 µM
same,AC50,[3],> 30 µM
CC(C)c1cccc(C(C)C)c1O [PROPOFOL],AC50,[3],> 30 µM
CN[C@@H](C)[C@@H](O)c1ccccc1 [PSEUDOEPHEDRINE],AC50,[7],> 30 µM
same,AC50,[8],> 30 µM
same,AC50,[9],> 30 µM
O=C1OC(OC(=O)c2cccnc2Nc2cccc(C(F)(F)F)c2)c2ccccc21 (configuration not stated) [TALNIFLUMATE],AC50,[2],> 30 µM
O=S1(=O)CCN(CN2CCS(=O)(=O)NC2)CN1 [TAUROLIDINE],AC50,[2],> 30 µM
